# From ChEMBL document CHEMBL5223124, “Recent applications of covalent chemistries in protein-protein interaction inhibitors” (RSC Med Chem, 2022)
# What was measured:
# [1] = biological target: Induced myeloid leukemia cell differentiation protein Mcl-1 (Homo sapiens, UniProt Q07820); assay: Inhibition of MCL-1 in human MOLP8 cells assessed as increase in caspase 3/7 activation; assay type: cell-based
# [2] = biological target: E3 ubiquitin-protein ligase Mdm2 (Homo sapiens, UniProt Q00987); assay: Binding affinity to HDM2 (unknown origin)
# E3 ubiquitin-protein ligase Mdm2, sequence (Q00987 whole entry): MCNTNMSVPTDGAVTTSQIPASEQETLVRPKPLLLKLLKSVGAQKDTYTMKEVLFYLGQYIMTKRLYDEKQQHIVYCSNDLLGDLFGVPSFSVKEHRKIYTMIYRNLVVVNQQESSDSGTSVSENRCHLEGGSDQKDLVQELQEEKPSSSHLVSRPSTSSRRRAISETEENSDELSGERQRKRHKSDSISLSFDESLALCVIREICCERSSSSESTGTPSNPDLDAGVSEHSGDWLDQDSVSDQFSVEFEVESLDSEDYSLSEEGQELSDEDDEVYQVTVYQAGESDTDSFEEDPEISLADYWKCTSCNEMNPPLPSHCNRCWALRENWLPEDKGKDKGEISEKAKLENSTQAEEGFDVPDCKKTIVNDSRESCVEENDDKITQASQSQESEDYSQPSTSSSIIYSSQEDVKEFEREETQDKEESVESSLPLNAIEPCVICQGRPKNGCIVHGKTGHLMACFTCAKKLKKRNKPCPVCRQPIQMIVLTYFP
# Induced myeloid leukemia cell differentiation protein Mcl-1, sequence (Q07820 whole entry): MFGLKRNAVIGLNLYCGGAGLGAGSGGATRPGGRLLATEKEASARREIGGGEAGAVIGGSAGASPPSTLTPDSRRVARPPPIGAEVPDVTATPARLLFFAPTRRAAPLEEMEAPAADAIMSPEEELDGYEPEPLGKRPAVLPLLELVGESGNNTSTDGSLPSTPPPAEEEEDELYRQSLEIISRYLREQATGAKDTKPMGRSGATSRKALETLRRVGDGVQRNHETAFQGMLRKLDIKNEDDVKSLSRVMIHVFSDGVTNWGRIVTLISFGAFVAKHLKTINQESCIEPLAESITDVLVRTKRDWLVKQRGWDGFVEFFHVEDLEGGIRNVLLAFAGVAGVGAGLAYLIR
SMILES,EC50 [1] [nM],Kd [2] [nM]
CCc1nn(C)c(CC)c1-c1cccc2c(CCCOc3cccc4ccccc34)c(C(=O)O)n(CCN3CCOCC3)c12,340,
CC(=O)c1cc(OCc2nn(C)c(C)c2-c2cccc3c(CCCOc4cccc5ccccc45)c(C(=O)O)[nH]c23)ccc1B(O)O,1170,
Cc1c(-c2cccc3c(CCCOc4cccc5ccccc45)c(C(=O)O)[nH]c23)c(COc2ccc(B(O)O)cc2)nn1C,> 11000,
Cc1c(-c2cccc3c(CCCOc4cccc5ccccc45)c(C(=O)O)[nH]c23)c(COc2ccc(B(O)O)c(C=O)c2)nn1C,460,
Cc1c(-c2cccc3c(CCCOc4cccc5ccccc45)c(C(=O)O)n(C)c23)c(COc2ccc(B(O)O)c(C=O)c2)nn1C,75,
COc1ccc(C2=NC(c3ccc(Cl)cc3)C(c3ccc(Cl)cc3)N2C(=O)N2CCN(C(=O)CCCNC(=O)CCCC(=O)N(CC#N)S(=O)(=O)c3ccccc3)CC2)c(OC(C)C)c1 (centres undefined),,570

# Second part, the molecule after the results:
EC50 [1] [nM],Kd [2] [nM],SMILES
> 11000,,Cc1c(-c2cccc3c(CCCOc4cccc5ccccc45)c(C(=O)O)[nH]c23)c(COc2ccccc2)nn1C
2700,,CC(=O)c1cccc(OCc2nn(C)c(C)c2-c2cccc3c(CCCOc4cccc5ccccc45)c(C(=O)O)[nH]c23)c1
> 11000,,Cc1c(-c2cccc3c(CCCOc4cccc5ccccc45)c(C(=O)O)[nH]c23)c(COc2cccc(C=O)c2)nn1C
